In PubChem BioAssay AID192 (DTP/NCI, 2004):
Several values for one entry are separate records, joined by “and”; a condition that tells them apart may be missing. Identical values can stand only once. Inconclusive results and toxic doses are left out. Rule for the calls: active = survival T/C of 150% or more; inactive = T/C below 125% in these data.

System: BDF1 mice, B16 melanoma ip, median survival T/C
Assay: NCI In Vivo Anticancer Drug Screen. Data for tumor model B16 Melanoma (intraperitoneal) in B6D2F1 (BDF1) mice
Conditions: endpoint: median survival time, higher = longer survival
Method in brief: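 In this screen, activity was judged from survival or tumor size in treated versus vehicle-treated tumor-bearing mice, reported as T/C.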

[1] = dose: 100.0 mg/kg/injection, schedule: Q01DX009 (ip), vehicle: saline with Tween-80
[2] = dose: 200.0 mg/kg/injection, schedule: Q01DX009 (ip), vehicle: saline with Tween-80
[3] = dose: 4.0 mg/kg/injection, schedule: Q01DX009 (ip), vehicle: saline
[4] = dose: 8.0 mg/kg/injection, schedule: Q01DX009 (ip), vehicle: saline
[5] = dose: 12.5 mg/kg/injection, schedule: Q01DX009 (ip), vehicle: saline with Tween-80
[6] = dose: 25.0 mg/kg/injection, schedule: Q01DX009 (ip), vehicle: saline with Tween-80
[7] = dose: 50.0 mg/kg/injection, schedule: Q01DX009 (ip), vehicle: saline with Tween-80
[8] = dose: 100.0 mg/kg/injection, schedule: Q01DX009 (ip), vehicle: Klucel (hydroxypropylcellulose) (HPC)
[9] = dose: 200.0 mg/kg/injection, schedule: Q01DX009 (ip), vehicle: Klucel (hydroxypropylcellulose) (HPC)
[10] = dose: 400.0 mg/kg/injection, schedule: Q01DX009 (ip), vehicle: Klucel (hydroxypropylcellulose) (HPC)

Measured: T/C

CC(=O)OCCC/C(=C\c1ccc2ccccc2c1)[N+](=O)[O-]
inactive: dose: 6.25 mg/kg/injection, schedule: Q01DX009 (ip), vehicle: saline 100 % of control | dose: 12.5 mg/kg/injection, schedule: Q01DX009 (ip), vehicle: saline 95 % of control | dose: 25.0 mg/kg/injection, schedule: Q01DX009 (ip), vehicle: saline 91 % of control | dose: 50.0 mg/kg/injection, schedule: Q01DX009 (ip), vehicle: saline 95 % of control | dose: 100.0 mg/kg/injection, schedule: Q01DX009 (ip), vehicle: saline 93 % of control

Cc1ccc(NC(=O)c2ccccc2Cl)cc1
inactive: [1] 105 % of control | [2] 97 % of control

NCCCC(N)(C(=O)O)C(F)F (configuration not stated)
inactive: dose: 50.0 mg/kg/injection, schedule: Q01DX009 (ip), vehicle: distilled water + alcohol 94 % of control | dose: 100.0 mg/kg/injection, schedule: Q01DX009 (ip), vehicle: distilled water + alcohol 101 % of control | dose: 200.0 mg/kg/injection, schedule: Q01DX009 (ip), vehicle: distilled water + alcohol 97 % of control | dose: 400.0 mg/kg/injection, schedule: Q01DX009 (ip), vehicle: distilled water + alcohol 100 % of control | dose: 800.0 mg/kg/injection, schedule: Q01DX009 (ip), vehicle: distilled water + alcohol 110 % of control

CC1CCC2N(C1)CC1C(C(O)C(O)C3(O)C1CC14OC5(O)C(O)CCC1(C)C5CC(O)C34)C2(C)O (configuration not stated)
inactive: dose: 16.25 mg/kg/injection, schedule: Q01DX009 (ip), vehicle: saline 100 % of control | dose: 37.5 mg/kg/injection, schedule: Q01DX009 (ip), vehicle: saline 102 % of control | dose: 65.0 mg/kg/injection, schedule: Q01DX009 (ip), vehicle: saline 100 % of control | dose: 130.0 mg/kg/injection, schedule: Q01DX009 (ip), vehicle: saline 104 % of control

CN(C)CCCN1c2ccccc2Sc2ccc(Cl)cc21
inactive: dose: 1.0 mg/kg/injection, schedule: Q01DX009 (ip), vehicle: saline 101 % of control | dose: 2.0 mg/kg/injection, schedule: Q01DX009 (ip), vehicle: saline 111 % of control and 93 % of control | [3] 110 % of control and 100 % of control | [4] 92 % of control and 102 % of control | dose: 12.5 mg/kg/injection, schedule: Q01DX009 (ip), vehicle: alkali diluted with saline 100 % of control | dose: 12.5 mg/kg/injection, schedule: Q01DX009 (ip), vehicle: saline sonified 97 % of control | dose: 16.0 mg/kg/injection, schedule: Q01DX009 (ip), vehicle: saline 94 % of control | dose: 25.0 mg/kg/injection, schedule: Q01DX009 (ip), vehicle: alkali diluted with saline 92 % of control | dose: 25.0 mg/kg/injection, schedule: Q01DX009 (ip), vehicle: saline sonified 90 % of control | dose: 32.0 mg/kg/injection, schedule: Q01DX009 (ip), vehicle: saline 92 % of control | dose: 64.0 mg/kg/injection, schedule: Q01DX009 (ip), vehicle: saline 87 % of control

COc1cc(C(C)(C)C)cc(OC)c1C(O)(c1c(OC)cc(C(C)(C)C)cc1OC)c1c(OC)cc(C(C)(C)C)cc1OC
inactive: dose: 6.25 mg/kg/injection, schedule: Q01DX009 (ip), vehicle: saline with Tween-80 102 % of control | [5] 116 % of control | [6] 109 % of control | [7] 121 % of control | [1] 109 % of control

O=C(Nc1ccccc1)Nc1cccc(Cl)c1
inactive: [7] 100 % of control | [1] 98 % of control | [2] 96 % of control

O=C(NCCCl)NCCCl
inactive: dose: 5.0 mg/kg/injection, schedule: Q01DX009 (ip), vehicle: Klucel (hydroxypropylcellulose) (HPC) 94 % of control | dose: 10.0 mg/kg/injection, schedule: Q01DX009 (ip), vehicle: Klucel (hydroxypropylcellulose) (HPC) 102 % of control | [5] 95 % of control | dose: 20.0 mg/kg/injection, schedule: Q01DX009 (ip), vehicle: Klucel (hydroxypropylcellulose) (HPC) 88 % of control | [6] 95 % of control | dose: 40.0 mg/kg/injection, schedule: Q01DX009 (ip), vehicle: Klucel (hydroxypropylcellulose) (HPC) 91 % of control | [7] 100 % of control | dose: 80.0 mg/kg/injection, schedule: Q01DX009 (ip), vehicle: Klucel (hydroxypropylcellulose) (HPC) 102 % of control | dose: 160.0 mg/kg/injection, schedule: Q01DX009 (ip), vehicle: Klucel (hydroxypropylcellulose) (HPC) 94 % of control | [2] 95 % of control | dose: 320.0 mg/kg/injection, schedule: Q01DX009 (ip), vehicle: Klucel (hydroxypropylcellulose) (HPC) 91 % of control | dose: 400.0 mg/kg/injection, schedule: Q01DX009 (ip), vehicle: saline with Tween-80 102 % of control

COc1cccc(CNc2cccc([N+](=O)[O-])c2)c1OC
inactive: [8] 100 % of control | [9] 110 % of control | [10] 105 % of control

CC(C)(C)c1cc(C[P+](c2ccccc2)(c2ccccc2)c2ccccc2)cc(C(C)(C)C)c1O
inactive: dose: 0.78 mg/kg/injection, schedule: Q01DX009 (ip), vehicle: saline 111 % of control | dose: 1.56 mg/kg/injection, schedule: Q01DX009 (ip), vehicle: saline 109 % of control | dose: 3.12 mg/kg/injection, schedule: Q01DX009 (ip), vehicle: saline 104 % of control | dose: 3.25 mg/kg/injection, schedule: Q04DX003 (ip), vehicle: saline 94 % of control | dose: 4.6 mg/kg/injection, schedule: Q01DX009 (ip), vehicle: saline 86 % of control

c1ccc(CNC(Cc2ccccc2)c2ccc(OCc3ccccc3)cc2)cc1 (configuration not stated)
inactive: [8] 106 % of control | [9] 96 % of control | [10] 93 % of control

CNC1=C(N2CC2C)C(=O)C(NC)=C(N2CC2C)C1=O (configuration not stated)
inactive: dose: 1.25 mg/kg/injection, schedule: Q01DX009 (ip), vehicle: saline 109 % of control

O=C(Nc1ccc(F)cc1)c1cccc(C(=O)Nc2ccc(F)cc2)c1
inactive: dose: 25.0 mg/kg/injection, schedule: Q01DX009 (ip), vehicle: Klucel (hydroxypropylcellulose) (HPC) 114 % of control | dose: 50.0 mg/kg/injection, schedule: Q01DX009 (ip), vehicle: Klucel (hydroxypropylcellulose) (HPC) 101 % of control | [8] 96 % of control

C1CC[N-]CC1.C1CC[N-]CC1.O=C(O)C(=O)O.[Pt+2]
inactive: dose: 6.25 mg/kg/injection, schedule: Q04DX003 (ip), vehicle: Klucel (hydroxypropylcellulose) (HPC) 100 % of control | dose: 12.5 mg/kg/injection, schedule: Q04DX003 (ip), vehicle: Klucel (hydroxypropylcellulose) (HPC) 120 % of control | dose: 25.0 mg/kg/injection, schedule: Q04DX003 (ip), vehicle: Klucel (hydroxypropylcellulose) (HPC) 119 % of control | dose: 50.0 mg/kg/injection, schedule: Q04DX003 (ip), vehicle: Klucel (hydroxypropylcellulose) (HPC) 115 % of control | dose: 100.0 mg/kg/injection, schedule: Q04DX003 (ip), vehicle: Klucel (hydroxypropylcellulose) (HPC) 113 % of control

CCCCCCCCCCCC[N+](C)(C)CCCCCCCCCCCC
inactive: [3] 87 % of control | [4] 88 % of control and 94 % of control

C=CC(CO)N1CC1 (configuration not stated)
inactive: dose: 1.0 mg/kg/injection, schedule: Q01DX009 (ip), vehicle: other 119 % of control | dose: 2.0 mg/kg/injection, schedule: Q01DX009 (ip), vehicle: other 116 % of control | dose: 4.0 mg/kg/injection, schedule: Q01DX009 (ip), vehicle: other 111 % of control | dose: 6.25 mg/kg/injection, schedule: Q04DX003 (ip), vehicle: other 100 % of control | dose: 8.0 mg/kg/injection, schedule: Q01DX009 (ip), vehicle: other 113 % of control | dose: 12.5 mg/kg/injection, schedule: Q04DX003 (ip), vehicle: other 100 % of control | dose: 25.0 mg/kg/injection, schedule: Q04DX003 (ip), vehicle: other 96 % of control | dose: 50.0 mg/kg/injection, schedule: Q04DX003 (ip), vehicle: other 109 % of control
